The results in this text go back to ChEMBL document CHEMBL4418493, “N-hydroxyformamide compounds and compositions comprising them for use as BMP1, TLL1 and/or TLL2 inhibitors” (2018).

Data set [1] is described as follows: Drug metabolism in heparinized pooled human plasma at pH 7.5 assessed as formation of (S)-2-(2-ethoxy-4-(5-((((R)-2-((R)-1-(N-hydroxyformamido)propyl)heptanamido)methyl) carbamoyl)furan-2-yl)benzamido)succinic acid at 100 to 2000 ng/ml incubated up to 4 or 24 hrs by LC-MS/MS analysis. It is filed as ADME, cell-free. To be noted: pH 7.5, 24 h.
The nature of data set [2]: Reduction in PICP levels in human cardiac fibroblasts incubated for 24 to 48 hrs by ELISA. In kind it is functional.

Broadly, the pIC50 is the IC50 on a negative log10 scale, so that one unit is a factor of ten. Higher therefore signals a small IC50.

SMILES strings stand for the structures. pIC50: −log10 of the molar value.

As for `CCCCC[C@@H](C(=O)NCNC(=O)c1ccc(-c2ccc(C(=O)N[C@@H](CC(=O)O)C(=O)O)c(OCC)c2)o1)[C@@H](CC)N(C=O)OC(=O)c1ccc2c(c1)OCCO2.N.N`, the Drug metabolism entry in data set [1] is “Metabolite_Detected”. This molecule had a pIC50 in data set [2] above 5.40.

Consider `CCCCC[C@@H](C(=O)NCNC(=O)c1ccc(-c2ccc(C(=O)N[C@@H](CC(=O)O)C(=O)O)c(OCC)c2)o1)[C@@H](CC)N(C=O)OC(=O)c1ccc(OC)cc1`, for which, in data set [1], the Drug metabolism result was “Metabolite_Detected”. Besides, the pIC50 in data set [2] is above 5.40.

As for `CCCCC[C@@H](C(=O)NCNC(=O)c1ccc(-c2ccc(C(=O)N[C@@H](CC(=O)O)C(=O)O)c(OCC)c2)o1)[C@@H](CC)N(C=O)OC(=O)c1cccc(N(C)C)c1`, the Drug metabolism result in data set [1] is on record as “Metabolite_Detected”.

Regarding `CCCCC[C@@H](C(=O)NCNC(=O)c1ccc(-c2ccc(C(=O)N[C@@H](CC(=O)O)C(=O)O)c(OCC)c2)o1)[C@@H](CC)N(C=O)OC(=O)C(CC)CC`, the Drug metabolism entry in data set [1] is reported as “Metabolite_Detected”. Moreover, the pIC50 in data set [2] was above 5.40.

On to `CCCCC[C@@H](C(=O)NCNC(=O)c1ccc(-c2ccc(C(=O)N[C@@H](CC(=O)O)C(=O)O)c(OCC)c2)o1)[C@@H](CC)N(C=O)OC(=O)c1c(C)cccc1F`, for which the Drug metabolism entry in data set [1] is given as “Metabolite_Detected”. The pIC50 in data set [2] is above 5.40.

For the molecule `CCCCC[C@@H](C(=O)NCNC(=O)c1ccc(-c2ccc(C(=O)N[C@@H](CC(=O)O)C(=O)O)c(OCC)c2)o1)[C@@H](CC)N(C=O)OC(=O)c1cccc(NC)c1`, the Drug metabolism result in data set [1] is “Metabolite_Detected”.

`CCCCC[C@@H](C(=O)NCNC(=O)c1ccc(-c2ccc(C(=O)N[C@@H](CC(=O)O)C(=O)O)c(OCC)c2)o1)[C@@H](CC)N(C=O)OC(=O)c1ccc(OC)cc1C(C)C`: the Drug metabolism result in data set [1] is listed as “Metabolite_Detected”.

With `CCCCC[C@@H](C(=O)NCNC(=O)c1ccc(-c2ccc(C(=O)N[C@@H](CC(=O)O)C(=O)OCc3oc(=O)oc3C)c(OCC)c2)o1)[C@@H](CC)N(O)C=O`, the Drug metabolism result in data set [1] was “Metabolite_Detected”.

For the molecule `CCCCC[C@@H](C(=O)NCNC(=O)c1ccc(-c2ccc(C(=O)N[C@@H](CC(=O)O)C(=O)O)c(OCC)c2)o1)[C@@H](CC)N(C=O)OC(=O)c1ccc(NC)cc1`, the Drug metabolism entry in data set [1] was “Metabolite_Detected”.

In the case of `CCCCC[C@@H](C(=O)NCNC(=O)c1ccc(-c2ccc(C(=O)N[C@@H](CC(=O)O)C(=O)O)c(OCC)c2)o1)[C@@H](CC)N(C=O)OC(=O)c1ccc(N)cc1`, in data set [1], the Drug metabolism entry is reported as “Metabolite_Detected”.

Consider `CCCCC[C@@H](C(=O)NCNC(=O)c1ccc(-c2ccc(C(=O)N[C@@H](CC(=O)O)C(=O)O)c(OCC)c2)o1)[C@@H](CC)N(C=O)OC(=O)c1ccc(CN2CCOCC2)cc1C`, for which the Drug metabolism entry in data set [1] is “Metabolite_Detected”. Besides, the pIC50 in data set [2] is above 5.40.

On to `CCCCC[C@@H](C(=O)NCNC(=O)c1ccc(-c2ccc(C(=O)N[C@@H](CC(=O)O)C(=O)OCOC(=O)C(C)C)c(OCC)c2)o1)[C@@H](CC)N(O)C=O`, for which the Drug metabolism result in data set [1] is listed as “Metabolite_Detected”. This molecule also had a pIC50 in data set [2] above 5.40.

Regarding `CCCCC[C@@H](C(=O)NCNC(=O)c1ccc(-c2ccc(C(=O)N[C@@H](CC(=O)O)C(=O)O)c(OCC)c2)o1)[C@@H](CC)N(C=O)OC(=O)c1ccc([N+](=O)[O-])cc1`, the Drug metabolism result in data set [1] was “Metabolite_Detected”. In data set [2], the pIC50 was above 5.40.

On to `CCCCC[C@@H](C(=O)NCNC(=O)c1ccc(-c2ccc(C(=O)N[C@@H](CC(=O)O)C(=O)O)c(OCC)c2)o1)[C@@H](CC)N(C=O)OC(=O)c1ccc(C(F)(F)F)cc1`, for which, in data set [1], the Drug metabolism entry is “Metabolite_Detected”. Besides, the pIC50 in data set [2] is above 5.40.

Regarding `CCCCC[C@@H](C(=O)NCNC(=O)c1ccc(-c2ccc(C(=O)N[C@@H](CC(=O)O)C(=O)O)c(OCC)c2)o1)[C@@H](CC)N(C=O)OC(=O)c1ccc(OC)cc1C.N.N`, in data set [1], the Drug metabolism result is “Metabolite_Detected”.

As for `CCCCC[C@@H](C(=O)NCNC(=O)c1ccc(-c2ccc(C(=O)N[C@@H](CC(=O)O)C(=O)O)c(OCC)c2)o1)[C@@H](CC)N(C=O)OC(=O)c1ccc(N2CCCC2=O)cc1.N.N`, the Drug metabolism result in data set [1] is given as “Metabolite_Detected”. In addition, in data set [2], the pIC50 was above 5.40.

In the case of `CCCCC[C@@H](C(=O)NCNC(=O)c1ccc(-c2ccc(C(=O)N[C@@H](CC(=O)O)C(=O)O)c(OCC)c2)o1)[C@@H](CC)N(C=O)OC(=O)c1ccc([N+](=O)[O-])cc1C`, the Drug metabolism result in data set [1] is recorded as “Metabolite_Detected”.

Take `CCCCC[C@@H](C(=O)NCNC(=O)c1ccc(-c2ccc(C(=O)N[C@@H](CC(=O)O)C(=O)O)c(OCC)c2)o1)[C@@H](CC)N(C=O)OC(=O)c1c(C)cccc1OP(=O)(O)O`: in data set [1], the Drug metabolism entry is given as “Metabolite_Detected”.

Consider `CCCCC[C@@H](C(=O)NCNC(=O)c1ccc(-c2ccc(C(=O)N[C@@H](CC(=O)O)C(=O)O)c(OCC)c2)o1)[C@@H](CC)N(C=O)OC(=O)c1ccc(-n2cccn2)cc1`, for which, in data set [1], the Drug metabolism entry was “Metabolite_Detected”. Moreover, in data set [2], the pIC50 was above 5.40.

Take `CCCCC[C@@H](C(=O)NCNC(=O)c1ccc(-c2ccc(C(=O)N[C@@H](CC(=O)O)C(=O)O)c(OCC)c2)o1)[C@@H](CC)N(C=O)OC(=O)c1ccc(CN)cc1`: the Drug metabolism entry in data set [1] is on record as “Metabolite_Detected”.

For the molecule `CCCCC[C@@H](C(=O)NCNC(=O)c1ccc(-c2ccc(C(=O)N[C@@H](CC(=O)O)C(=O)O)c(OCC)c2)o1)[C@@H](CC)N(C=O)OC(=O)c1ccc(OCCOCCO)cc1`, the Drug metabolism result in data set [1] is recorded as “Metabolite_Detected”. In data set [2], this molecule showed a pIC50 above 5.40.

For the molecule `CCCCC[C@@H](C(=O)NCNC(=O)c1ccc(-c2ccc(C(=O)N[C@@H](CC(=O)O)C(=O)O)c(OCC)c2)o1)[C@@H](CC)N(C=O)OC(=O)NC(C)C`, the Drug metabolism result in data set [1] is recorded as “Metabolite_Detected”. This molecule showed a pIC50 in data set [2] above 5.40.

For the molecule `CCCCC[C@@H](C(=O)NCNC(=O)c1ccc(-c2ccc(C(=O)N[C@@H](CC(=O)O)C(=O)O)c(OCC)c2)o1)[C@@H](CC)N(C=O)OC(=O)c1ccc(OC)c(OC)c1`, in data set [1], the Drug metabolism entry was “Metabolite_Detected”. For the same molecule, the pIC50 in data set [2] was above 5.40.

On to `CCCCC[C@@H](C(=O)NCNC(=O)c1ccc(-c2ccc(C(=O)N[C@@H](CC(=O)O)C(=O)O)c(OCC)c2)o1)[C@@H](CC)N(C=O)OC(=O)C1CCNCC1.O=C(O)C(F)(F)F`, for which, in data set [1], the Drug metabolism entry is reported as “Metabolite_Detected”. In data set [2], this molecule gave a pIC50 above 5.40.

For `CCCCC[C@@H](C(=O)NCNC(=O)c1ccc(-c2ccc(C(=O)N[C@@H](CC(=O)O)C(=O)O)c(OCC)c2)o1)[C@@H](CC)N(C=O)OC(=O)c1ccc2c(c1)N(C)CCO2.N.N`, in data set [1], the Drug metabolism result is listed as “Metabolite_Detected”. Further, in data set [2], the pIC50 is above 5.40.

On to `CCCCC[C@@H](C(=O)NCNC(=O)c1ccc(-c2ccc(C(=O)N[C@@H](CC(=O)O)C(=O)O)c(OCC)c2)o1)[C@@H](CC)N(C=O)OC(=O)c1ccc(F)cc1C(C)C`, for which the Drug metabolism entry in data set [1] is on record as “Metabolite_Detected”. In data set [2], the pIC50 is above 5.40.

For the molecule `CCCCC[C@@H](C(=O)NCNC(=O)c1ccc(-c2ccc(C(=O)N[C@@H](CC(=O)O)C(=O)O)c(OCC)c2)o1)[C@@H](CC)N(C=O)OC(=O)c1ccc(OC)cc1Br`, the Drug metabolism result in data set [1] is on record as “Metabolite_Detected”.

In the case of `CCCCC[C@@H](C(=O)NCNC(=O)c1ccc(-c2ccc(C(=O)N[C@@H](CC(=O)O)C(=O)O)c(OCC)c2)o1)[C@@H](CC)N(C=O)OC(=O)c1ccc(-n2ccnc2)cc1`, the Drug metabolism entry in data set [1] is on record as “Metabolite_Detected”. Further, the pIC50 in data set [2] is above 5.40.

On to `CCCCC[C@@H](C(=O)NCNC(=O)c1ccc(-c2ccc(C(=O)N[C@@H](CC(=O)O)C(=O)Oc3ccccc3)c(OCC)c2)o1)[C@@H](CC)N(O)C=O`, for which the Drug metabolism entry in data set [1] is on record as “Metabolite_Detected”.

For the molecule `CCCCC[C@@H](C(=O)NCNC(=O)c1ccc(-c2ccc(C(=O)N[C@@H](CC(=O)O)C(=O)O)c(OCC)c2)o1)[C@@H](CC)N(C=O)OCOC(=O)C(C)(C)C`, in data set [1], the Drug metabolism result is listed as “Metabolite_Detected”. For the same molecule, in data set [2], the pIC50 is above 5.40.

As to `CCCCC[C@@H](C(=O)NCNC(=O)c1ccc(-c2ccc(C(=O)N[C@@H](CC(=O)O)C(=O)O)c(OCC)c2)o1)[C@@H](CC)N(C=O)OC(=O)c1ccc(N(C)S(C)(=O)=O)cc1`, in data set [1], the Drug metabolism result is “Metabolite_Detected”. Besides, the pIC50 in data set [2] was above 5.40.

As for `CCCCC[C@@H](C(=O)NCNC(=O)c1ccc(-c2ccc(C(=O)N[C@@H](CC(=O)O)C(=O)O)c(OCC)c2)o1)[C@@H](CC)N(C=O)OC(=O)c1ccc(CN2CCOCC2)cc1`, in data set [1], the Drug metabolism result is on record as “Metabolite_Detected”. The pIC50 in data set [2] was above 5.40.

With `CCCCC[C@@H](C(=O)NCNC(=O)c1ccc(-c2ccc(C(=O)N[C@@H](CC(=O)O)C(=O)O)c(OCC)c2)o1)[C@@H](CC)N(C=O)OC(=O)c1cccc(N)c1`, the Drug metabolism result in data set [1] is reported as “Metabolite_Detected”.

Take `CCCCC[C@@H](C(=O)NCNC(=O)c1ccc(-c2ccc(C(=O)N[C@@H](CC(=O)O)C(=O)O)c(OCC)c2)o1)[C@@H](CC)N(C=O)OC(=O)c1ccc(-n2cccc2)cc1.N.N`: the Drug metabolism entry in data set [1] is on record as “Metabolite_Detected”.

`CCCCC[C@@H](C(=O)NCNC(=O)c1ccc(-c2ccc(C(=O)N[C@@H](CC(=O)O)C(=O)O)c(OCC)c2)o1)[C@@H](CC)N(C=O)OC(=O)Nc1ccccc1`: the Drug metabolism result in data set [1] is on record as “Metabolite_Detected”.

In the case of `CCCCC[C@@H](C(=O)NCNC(=O)c1ccc(-c2ccc(C(=O)N[C@@H](CC(=O)O)C(=O)O)c(OCC)c2)o1)[C@@H](CC)N(C=O)OC(=O)c1ccc(OC)cc1Cl`, the Drug metabolism entry in data set [1] is reported as “Metabolite_Detected”.

As to `CCCCC[C@@H](C(=O)NCNC(=O)c1ccc(-c2ccc(C(=O)N[C@@H](CC(=O)O)C(=O)O)c(OCC)c2)o1)[C@@H](CC)N(C=O)OC(=O)c1cccc(N2CCCC2)c1.N.N`, the Drug metabolism entry in data set [1] is “Metabolite_Detected”. The molecule also showed a pIC50 in data set [2] above 5.40.

On to `CCCCC[C@@H](C(=O)NCNC(=O)c1ccc(-c2ccc(C(=O)N[C@@H](CC(=O)O)C(=O)O)c(OCC)c2)o1)[C@@H](CC)N(C=O)OC(=O)c1ccc(F)cc1C`, for which the Drug metabolism result in data set [1] was “Metabolite_Detected”. In data set [2], this molecule had a negative-log IC50 (pIC50) above 5.40.
